Tests used:
[1] = test system: HEK293 cells; assay: NPC1 protein expression in HEK293 cells transfected with viral genome constructs (ELISA and Western Blot, normalized to GAPDH and transfection efficiency); format: cell-based; settings: for % over Ref. (% overexpression compared to that of the reference ITR_ITR 2): transfection, NPC1 protein vs reference ITR_ITR 2 (SEQ ID NO: 1753), Table 6; for NPC1 expression normalized to GAPDH and transfection efficiency: EF-1a promoter variants with wtNPC1, FIG. 2
Excerpt: The viral genome constructs encoding NPC1 generated, and investigated for expression of NPC1 protein in vitro. Use of different promoters (e.g., CBA promoters or variants thereof, CMV promoters and variants thereof, EF1a promoter variants) and/or codon optimized nucleotide sequences encoding the NPC1 protein (e.g., SEQ ID NO: 1750 or SEQ ID NO: 1749) (Table 6). An additional set of viral genome constructs were also investigated, testing different combinations of promoters and codon optimized sequences (Tables 7, 9 and 10).
In order to assess NPC1 expression, the viral genome constructs comprising a promoter operably linked to a transgene encoding were transfected into HEK293 cells. NPC1 protein level was determined by ELISA and Western Blot, and normalized to GAPDH control and transfection efficiency. The expression of NPC1 was calculated as percent overexpression relative to the reference construct (ITR_ITR 2 (SEQ ID NO: 1753) which comprises promoter variant 8 (SEQ ID NO: 1782) and the wild-type nucleotide sequence encoding NPC1 (SEQ ID NO: 1747)) (% over reference or % overexpression to reference).
Table 9 summarizes the constructs tested that comprise promoter variant 11 (SEQ ID NO: 1785), promoter variant 13 (SEQ ID NO: 1787), promoter variant 15 (SEQ ID NO: 1789), or promoter variant 18 (SEQ ID NO: 1791), operably linked to a transgene encoding NPC1 (wild-type or codon optimized nucleotide sequences encoding NPC1). These constructs were transfected into HEK293 cells, and the NPC1 protein expression was measured by ELISA and/or western blot and normalized to expression of a GAPDH control and transfection efficiency. The percent overexpression compared to a reference construct (ITR_ITR2 (SEQ ID NO: 1753), which comprises promoter variant 8 (SEQ ID NO: 1782) and the wild-type nucleotide sequence encoding NPC1 (SEQ ID NO: 1747)) was then calculated for each construct tested (% overexpression to reference) (Table 9, FIGS. 2-3).

[2] = test system: animal models of NPC disease; settings: biweekly intrathecal (IT) injection; cited from earlier work
[3] = test system: human neuronal cells; assay: NPC1 protein expression in human neuronal cells; format: cell-based; settings: human neurons, transduced; FIG. 10A
Excerpt: Cell-lines and reagents: Standard cell-lines are used for initial screening. This includes lines from multiple species to align with in vivo studies. Since transduction of both neuronal and non-neuronal cell types are needed in vivo, two neuronal and two non-neuronal cell types are used for in vitro screening. These cell lines include naïve neuronal SK-N-AS cells (procured from ATCC), primary neuronal cultures from NPC1^−/− mice (see below), immortalized human hepatocytes (procured from Creative Bioarray or ATCC), NPC1 patient fibroblasts (procured from Coriell) and/or iPS Cells derived from NPC1 patients (Yu, Xiao-Hua, et al. “NPC1, intracellular cholesterol trafficking and atherosclerosis.”Clinica chimica acta 429 (2014): 69-75, the disclosure of which is incorporated by reference in its entirety). Example cell lines for use in assays described herein include fibroblast cell lines, which may be procured from Coriell Institute (Camden, N.J., United States). […]
NPC1 protein expression was further assessed for constructs ITR_ITR 2, ITR_ITR 1, ITR_ITR 3, ITR_ITR 4, and ITR_ITR 5 (SEQ ID NOs: 1753, 1752, and 1754-1756, respectively) in hepatocytes (FIG. 5, left graph) and constructs ITR_ITR 2, ITR_ITR 1, ITR_ITR 3, ITR_ITR 4, ITR_ITR 5, ITR_ITR 6, and ITR_ITR 7 (SEQ ID NOs: 1753, 1752, and 1754-1758, respectively) in human neuronal cells (FIG. 5, right graph). […]

[4] = test system: NPC1 patient fibroblasts; assay: NPC1 protein expression in NPC1 patient fibroblasts; format: cell-based, human; settings: transduced, FIG. 10B
Excerpt: NPC1/2 is overexpressed in HEK 293 cells using the AAV vector of Example 1 or other method of transfection. Western Blot and ELISA detection protocols are optimized using routine experimentation to establish assays for NPC1/2 protein detection. These and additional biochemical studies are used to validate assays and establish cell lines for additional in vitro analysis. For example, Western Blot and ELISA assays can be performed and optimized using fibroblast cell lines, which may be obtained from Coriell Institute (Camden, N.J., United States). Fibroblast cell lines can be from healthy individual donors (e.g., Coriell catalog nos. GM00038, GM00302, GM00500, GM00969, and/or GM05758—referred to respectively herein as H1, H2, H3, H4, and H5 cell lines) or from diagnosed Niemann-Pick Disease, Type C1 patient donors (e.g., Coriell catalog nos. GM00110, GM03123, GM18436, and/or GM23162 referred to respectively herein as N1, N2, N3, and N4 cell lines).
NPC1 protein expression was assessed in healthy and NPC1 patient fibroblasts according to the assays described in Example 2. […] ITR_ITR 1 rescued NPC1 protein to near 100% relative to healthy fibroblasts. ITR_ITR 3 and ITR_ITR 5 rescued NPC1 protein to 100% or greater relative to healthy fibroblasts. […]

[5] = % overexpression vs reference, Table 8

wtNPC1: Wild type Human NPC1 Coding Sequence, SEQ ID NO: 1747 [reference compound]
NPC1 expression, CBA promoter with intron [1, 5]: 72%
NPC1 expression, CBA promoter without intron [1, 5]: −15%
NPC1 expression, CMV promoter with intron [1, 5]: 356%
NPC1 expression, CMV promoter without intron [1, 5]: 203%
NPC1 expression, Promoter Variant 8 (SEQ ID NO: 1782) with intron [1, 5]: 311%

2-hydroxypropyl-β-cyclodextrin
efficacy in animal models of NPC disease [2]: effectively delay the onset of neurological signs, ameliorate cerebellar and liver dysfunction, and prolong lifespan

ITR_ITR 41: Viral genome SEQ ID NO: 1833: CMVie enhancer (SEQ ID NO: 1737); short CBA promoter; WT NPC1 protein coding sequence
% over Ref. (% overexpression compared to that of the reference ITR_ITR 2) [1]: 165%

ITR_ITR 7: Viral genome SEQ ID NO: 1758: short CBA promoter (SEQ ID NO: 1735); WT NPC1 protein coding sequence
% over Ref. (% overexpression compared to that of the reference ITR_ITR 2) [1]: −15%

CCCCN1C[C@H](O)[C@@H](O)[C@H](O)[C@H]1CO [Miglustat]
efficacy in animal models of NPC disease [2]: effectively delay the onset of neurological signs, ameliorate cerebellar and liver dysfunction, and prolong lifespan

B1: Promoter Variant 13: EF-1a promoter variant, 241 nt, SEQ ID NO: 1787 (nucleic acid)
DNA: GCATGCGTGAGGCTCCGGTGCCCGTCAGTGGGCAGAGCGCACATCGCCCACAGTCCCCGAGAAGTTGGGGGGAGGGGTCGGCAATTGAACCGGTGCCTAGAGAAGGTGGCGCGGGGTAAACTGGGAAAGTGATGTCGTGTACTGGCTCCGCCTTTTTCCCGAGGGTGGGGGAGAACCGTATATAAGTGCAGTAGTCGCCGTGAACGTTCTTTTTCGCAACGGGTTTGCCGCCAGAACACAG
NPC1 expression normalized to GAPDH and transfection efficiency [1]: increased NPC1 expression relative to the ITR_ITR 2 reference construct

B2: Promoter Variant 11: EF-1a promoter variant, 236 nt, SEQ ID NO: 1785 (nucleic acid)
DNA: CGTGAGGCTCCGGTGCCCGTCAGTGGGCAGAGCGCACATCGCCCACAGTCCCCGAGAAGTTGGGGGGAGGGGTCGGCAATTGAACCGGTGCCTAGAGAAGGTGGCGCGGGGTAAACTGGGAAAGTGATGTCGTGTACTGGCTCCGCCTTTTTCCCGAGGGTGGGGGAGAACCGTATATAAGTGCAGTAGTCGCCGTGAACGTTCTTTTTCGCAACGGGTTTGCCGCCAGAACACAG
NPC1 expression normalized to GAPDH and transfection efficiency [1]: increased NPC1 expression relative to the ITR_ITR 2 reference construct
NPC1 expression (NPC1/B-actin) [3]: increased expression of NPC1 compared to the CMV promoter

B3: CMV promoter: short CMV promoter, 205 nt, SEQ ID NO: 1736 (nucleic acid)
DNA: GTGATGCGGTTTTGGCAGTACATCAATGGGCGTGGATAGCGGTTTGACTCACGGGGATTTCCAAGTCTCCACCCCATTGACGTCAATGGGAGTTTGTTTTGGCACCAAAATCAACGGGACTTTCCAAAATGTCGTAACAACTCCGCCCCATTGACGCAAATGGGCGGTAGGCGTGTACGGTGGGAGGTCTATATAAGCAGAGCTC
NPC1 expression (NPC1/B-actin) [4]: increased expression of NPC1 compared to Promoter Variant 11

B4: Promoter Variant 15: EF-1a promoter variant, 252 nt, SEQ ID NO: 1789 (nucleic acid)
DNA: GGTGGAGAAGAGCATGCGTGAGGCTCCGGTGCCCGTCAGTGGGCAGAGCGCACATCGCCCACAGTCCCCGAGAAGTTGGGGGGAGGGGTCGGCAATTGAACCGGTGCCTAGAGAAGGTGGCGCGGGGTAAACTGGGAAAGTGATGTCGTGTACTGGCTCCGCCTTTTTCCCGAGGGTGGGGGAGAACCGTATATAAGTGCAGTAGTCGCCGTGAACGTTCTTTTTCGCAACGGGTTTGCCGCCAGAACACAG
NPC1 expression normalized to GAPDH and transfection efficiency [1]: increased NPC1 expression relative to the ITR_ITR 2 reference construct

B5: Promoter Variant 18: EF-1a promoter variant, 263 nt, SEQ ID NO: 1791 (nucleic acid)
DNA: GTCATCACTGAGGTGGAGAAGAGCATGCGTGAGGCTCCGGTGCCCGTCAGTGGGCAGAGCGCACATCGCCCACAGTCCCCGAGAAGTTGGGGGGAGGGGTCGGCAATTGAACCGGTGCCTAGAGAAGGTGGCGCGGGGTAAACTGGGAAAGTGATGTCGTGTACTGGCTCCGCCTTTTTCCCGAGGGTGGGGGAGAACCGTATATAAGTGCAGTAGTCGCCGTGAACGTTCTTTTTCGCAACGGGTTTGCCGCCAGAACACAG
NPC1 expression normalized to GAPDH and transfection efficiency [1]: increased NPC1 expression relative to the ITR_ITR 2 reference construct

Reference: patent US20230285596A1, “COMPOSITIONS AND METHODS FOR THE TREATMENT OF NIEMANN-PICK TYPE C1 DISEASE” (Voyager Therapeutics, Inc, priority 2020, published 2023)
